# Tested on: zebrafish embryos
# Experiment: Zebrafish embryo teratogenicity
# Type: in vivo
# Conditions: treatment from 2hpf, images at 24hpf
# Procedure: Embryos were observed daily at 24 h intervals and toxicity scores (hatching and mortality) were recorded until 120hpf. For heart rate assessments, embryos were anesthetized with tricaine (ethyl 3-aminobenzoate methanesulfonate) at 48hpf and counted under the stereomicroscope for 1min. To assess JVG045 teratogenicity compared to BGJ398, embryos were treated with the compounds starting from 2hpf and results observed at 24hpf. Compounds were prepared in DMSO and diluted to the final concentration in E2 embryo medium. DMSO was used as negative control.
smiles,measurement,value
"CCN1CCN(c2ccc(Nc3cc(N(C)C(=O)Nc4c(Cl)c(OC)cc(OC)c4Cl)ncn3)cc2)CC1 [BGJ398, 3-(2,6-Dichloro-3,5-dimethoxy-phenyl)-1-{6-[4-(4-ethyl-piperazin-1-yl)-phenylamino]-pyrimidin-4-yl}-1-methyl-urea]",concentration at which developmental defects start,500 to 1000 nM

# From article PMC7720599, “Rhenium N-heterocyclic carbene complexes block growth of aggressive cancers by inhibiting FGFR- and SRC-mediated signalling” (Journal of Experimental & Clinical Cancer Research : CR, 2020)
